From PubChem BioAssay AID328 (DTP/NCI, 2004)
“And” between values parts separate entries of the source, which are not always exact repeats. Equal entries are not always repeated. Toxic doses and inconclusive results are not listed.

Test system: BDF1 mice, P388 leukemia ip, median survival T/C
Assay: NCI In Vivo Anticancer Drug Screen. Data for tumor model P388 Leukemia (intraperitoneal) in B6D2F1 (BDF1) mice
Conditions: endpoint: median survival time, higher = longer survival
Summary of the method: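 In tumour-bearing mice, survival after compound treatment is set against the vehicle group and given as a quotient.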

[1] = dose: 100.0 mg/kg/injection, schedule: Q04DX003 (ip), vehicle: saline with Tween-80
[2] = dose: 100.0 mg/kg/injection, schedule: Q01DX001 (ip), vehicle: saline with Tween-80
[3] = dose: 200.0 mg/kg/injection, schedule: Q01DX001 (ip), vehicle: saline with Tween-80
[4] = dose: 400.0 mg/kg/injection, schedule: Q01DX001 (ip), vehicle: saline with Tween-80
[5] = dose: 50.0 mg/kg/injection, schedule: Q01DX009 (ip), vehicle: saline with Tween-80
[6] = dose: 100.0 mg/kg/injection, schedule: Q01DX009 (ip), vehicle: saline with Tween-80
[7] = dose: 200.0 mg/kg/injection, schedule: Q01DX009 (ip), vehicle: saline with Tween-80
[8] = dose: 25.0 mg/kg/injection, schedule: Q04DX003 (ip), vehicle: saline with Tween-80
[9] = dose: 50.0 mg/kg/injection, schedule: Q04DX003 (ip), vehicle: saline with Tween-80
[10] = dose: 25.0 mg/kg/injection, schedule: Q04DX003 (ip), vehicle: saline
[11] = dose: 50.0 mg/kg/injection, schedule: Q04DX003 (ip), vehicle: saline
[12] = dose: 100.0 mg/kg/injection, schedule: Q04DX003 (ip), vehicle: saline
[13] = dose: 12.5 mg/kg/injection, schedule: Q04DX003 (ip), vehicle: saline
[14] = dose: 200.0 mg/kg/injection, schedule: Q04DX003 (ip), vehicle: saline
[15] = dose: 400.0 mg/kg/injection, schedule: Q04DX003 (ip), vehicle: saline
[16] = dose: 6.25 mg/kg/injection, schedule: Q01DX009 (ip), vehicle: Klucel (hydroxypropylcellulose) (HPC)
[17] = dose: 12.5 mg/kg/injection, schedule: Q01DX009 (ip), vehicle: Klucel (hydroxypropylcellulose) (HPC)
[18] = dose: 25.0 mg/kg/injection, schedule: Q01DX009 (ip), vehicle: Klucel (hydroxypropylcellulose) (HPC)
[19] = dose: 400.0 mg/kg/injection, schedule: Q01DX009 (ip), vehicle: saline with Tween-80
[20] = dose: 200.0 mg/kg/injection, schedule: Q04DX003 (ip), vehicle: saline with Tween-80

CCCC(=O)OCc1ccc(Cl)cc1Cl
T/C [1]: 109 % of control | T/C (dose: 400.0 mg/kg/injection, schedule: Q04DX003 (ip), vehicle: saline with Tween-80): 113 % of control

CC(C)(C)C1CCC(O)C(Cl)C1 (stereo unspecified)
T/C (dose: 50.0 mg/kg/injection, schedule: Q04DX003 (ip), vehicle: Klucel (hydroxypropylcellulose) (HPC)): 95 % of control | T/C (dose: 100.0 mg/kg/injection, schedule: Q04DX003 (ip), vehicle: Klucel (hydroxypropylcellulose) (HPC)): 109 % of control | T/C (dose: 200.0 mg/kg/injection, schedule: Q04DX003 (ip), vehicle: Klucel (hydroxypropylcellulose) (HPC)): 109 % of control

O=C1c2ccccc2C(=O)N1/N=C/C=C/c1ccccc1
T/C (dose: 87.5 mg/kg/injection, schedule: Q01DX009 (ip), vehicle: saline with Tween-80): 106 % of control | T/C (dose: 175.0 mg/kg/injection, schedule: Q01DX009 (ip), vehicle: saline with Tween-80): 95 % of control | T/C (dose: 350.0 mg/kg/injection, schedule: Q01DX009 (ip), vehicle: saline with Tween-80): 87 % of control

COc1cc(/C=C\C(=O)c2ccc(F)cc2)cc(OC)c1OC
T/C [2]: 98 % of control | T/C [3]: 96 % of control | T/C [4]: 100 % of control

N#CN=CN1CCC(O)(c2ccccc2)CC1
T/C [5]: 88 % of control | T/C [6]: 88 % of control | T/C [7]: 94 % of control

CC(C)(O)c1ccccc1[S+]1OC(C)(C)c2ccccc21 (stereo unspecified)
T/C [2]: 98 % of control | T/C (dose: 100.0 mg/kg/injection, schedule: Q01DX001 (ip), vehicle: saline): 100 % of control | T/C [3]: 103 % of control | T/C (dose: 200.0 mg/kg/injection, schedule: Q01DX001 (ip), vehicle: saline): 102 % of control | T/C [4]: 118 % of control | T/C (dose: 400.0 mg/kg/injection, schedule: Q01DX001 (ip), vehicle: saline): 117 % of control

Cc1cccc2c1CC(C(C)C)C2 (stereo unspecified)
T/C [6]: 123 % of control | T/C [7]: 103 % of control

CCCC(O)Cc1c[nH]c(=O)[nH]c1=O (stereo unspecified)
T/C (dose: 6.25 mg/kg/injection, schedule: Q01DX009 (ip), vehicle: saline with Tween-80): 101 % of control | T/C (dose: 12.5 mg/kg/injection, schedule: Q01DX009 (ip), vehicle: saline with Tween-80): 92 % of control | T/C (dose: 12.5 mg/kg/injection, schedule: Q04DX003 (ip), vehicle: saline with Tween-80): 101 % of control | T/C (dose: 25.0 mg/kg/injection, schedule: Q01DX009 (ip), vehicle: saline with Tween-80): 106 % of control | T/C [8]: 104 % of control | T/C [5]: 93 % of control | T/C [9]: 100 % of control

N#C/C(C(=N)c1ccccc1)=C1\SS/C(=C(\C#N)C(=N)c2ccccc2)S1
T/C (dose: 1.5 mg/kg/injection, schedule: Q01DX009 (ip), vehicle: saline with Tween-80): 101 % of control

CC1=CCS(=O)(=O)C1
T/C (dose: 25.0 mg/kg/injection, schedule: Q01DX001 (ip), vehicle: other): 95 % of control | T/C (dose: 25.0 mg/kg/injection, schedule: Q01DX009 (ip), vehicle: saline): 113 % of control | T/C [10]: 91 % of control | T/C (dose: 50.0 mg/kg/injection, schedule: Q01DX001 (ip), vehicle: other): 86 % of control | T/C (dose: 50.0 mg/kg/injection, schedule: Q01DX009 (ip), vehicle: saline): 100 % of control | T/C [11]: 87 % of control | T/C (dose: 100.0 mg/kg/injection, schedule: Q01DX001 (ip), vehicle: other): 95 % of control | T/C (dose: 100.0 mg/kg/injection, schedule: Q01DX009 (ip), vehicle: saline): 109 % of control | T/C [12]: 91 % of control

Cc1cc2c(c(O)c1CN1CCOCC1)C1=C(CCCC1)C(C)(C)O2
T/C (dose: 1.0 mg/kg/injection, schedule: Q01DX001 (ip), vehicle: Klucel (hydroxypropylcellulose) (HPC)): 99 % of control | T/C (dose: 2.0 mg/kg/injection, schedule: Q01DX001 (ip), vehicle: Klucel (hydroxypropylcellulose) (HPC)): 112 % of control | T/C (dose: 4.0 mg/kg/injection, schedule: Q01DX001 (ip), vehicle: Klucel (hydroxypropylcellulose) (HPC)): 104 % of control | T/C (dose: 8.0 mg/kg/injection, schedule: Q01DX001 (ip), vehicle: Klucel (hydroxypropylcellulose) (HPC)): 104 % of control | T/C (dose: 16.0 mg/kg/injection, schedule: Q01DX001 (ip), vehicle: Klucel (hydroxypropylcellulose) (HPC)): 109 % of control | T/C (dose: 32.0 mg/kg/injection, schedule: Q01DX001 (ip), vehicle: Klucel (hydroxypropylcellulose) (HPC)): 98 % of control | T/C (dose: 64.0 mg/kg/injection, schedule: Q01DX001 (ip), vehicle: Klucel (hydroxypropylcellulose) (HPC)): 96 % of control | T/C (dose: 128.0 mg/kg/injection, schedule: Q01DX001 (ip), vehicle: Klucel (hydroxypropylcellulose) (HPC)): 106 % of control | T/C (dose: 256.0 mg/kg/injection, schedule: Q01DX001 (ip), vehicle: Klucel (hydroxypropylcellulose) (HPC)): 98 % of control

C[S+](C)C
T/C (dose: 12.0 mg/kg/injection, schedule: Q01DX001 (ip), vehicle: saline): 100 % of control | T/C [13]: 100 % of control | T/C (dose: 25.0 mg/kg/injection, schedule: Q01DX001 (ip), vehicle: saline): 100 % of control | T/C [10]: 100 % of control | T/C (dose: 50.0 mg/kg/injection, schedule: Q01DX001 (ip), vehicle: saline): 100 % of control | T/C [11]: 100 % of control | T/C [12]: 111 % of control | T/C [14]: 100 % of control | T/C [15]: 96 % of control

C/C(Cc1ccccc1)=N/N(C)C
T/C [8]: 108 % of control | T/C [9]: 100 % of control | T/C [1]: 104 % of control

CN(C)CCCNC1=C(Cl)C(=O)c2ccccc2C1=O
T/C [16]: 114 % of control | T/C [17]: 109 % of control | T/C [18]: 116 % of control

CCOC(=O)C(C(=O)OCC)C(C)C
T/C [12]: 105 % of control | T/C [14]: 105 % of control | T/C [15]: 115 % of control

CCC(C(=O)O)C(=O)O.[NH-]CC[NH-].[Pt+2]
T/C [10]: 100 % of control | T/C (dose: 33.0 mg/kg/injection, schedule: Q04DX003 (ip), vehicle: saline): 118 % of control | T/C [11]: 154 % of control

COc1ccc2c(c1)CCN(C1=C(C)C(=O)CC1)C2CC(=O)O (stereo unspecified)
T/C (dose: 100.0 mg/kg/injection, schedule: Q01DX001 (ip), vehicle: saline sonified): 100 % of control | T/C (dose: 200.0 mg/kg/injection, schedule: Q01DX001 (ip), vehicle: saline sonified): 100 % of control | T/C (dose: 400.0 mg/kg/injection, schedule: Q01DX001 (ip), vehicle: saline sonified): 100 % of control

CSc1ncc(Br)c(C(=O)O)n1
T/C [6]: 95 % of control | T/C [7]: 100 % of control | T/C [19]: 104 % of control

CC(=O)N(C)C
T/C (dose: 300.0 mg/kg/injection, schedule: Q01DX010 (ip), vehicle: saline): 104 % of control | T/C (dose: 600.0 mg/kg/injection, schedule: Q01DX010 (ip), vehicle: saline): 104 % of control | T/C (dose: 1200.0 mg/kg/injection, schedule: Q01DX010 (ip), vehicle: saline): 119 % of control | T/C (dose: 2400.0 mg/kg/injection, schedule: Q01DX010 (ip), vehicle: saline): 119 % of control | T/C (dose: 3600.0 mg/kg/injection, schedule: Q01DX010 (ip), vehicle: saline): 168 % of control

c1ccc2cc3nc4cc5ccccc5cc4nc3cc2c1
T/C [6]: 99 % of control | T/C [7]: 100 % of control | T/C [19]: 100 % of control

CSc1nc(Cl)cc2c1ncn2C1OC(CO)C(O)C1O (stereo unspecified)
T/C [13]: 105 % of control | T/C [10]: 102 % of control | T/C [11]: 102 % of control | T/C [12]: 112 % of control | T/C [14]: 110 % of control | T/C [15]: 100 % of control

CC(=O)N(C)Nc1ccccc1
T/C [9]: 100 % of control | T/C [1]: 90 % of control and 100 % of control | T/C [20]: 105 % of control

CCc1ccc(C(C)(C)C)cc1
T/C [9]: 109 % of control | T/C [1]: 104 % of control | T/C (dose: 132.0 mg/kg/injection, schedule: Q01DX009 (ip), vehicle: saline with Tween-80): 118 % of control | T/C [20]: 100 % of control

CC(C)=CCC/C(C)=C/CNCCc1c[nH]c2ccccc12
T/C (dose: 3.12 mg/kg/injection, schedule: Q01DX009 (ip), vehicle: Klucel (hydroxypropylcellulose) (HPC)): 117 % of control | T/C [16]: 104 % of control and 117 % of control | T/C [17]: 117 % of control | T/C [18]: 120 % of control | T/C (dose: 50.0 mg/kg/injection, schedule: Q01DX009 (ip), vehicle: Klucel (hydroxypropylcellulose) (HPC)): 120 % of control
